Reference: patent US20120058507A1, “Clonal Derivation and Cell Culture quality Control Screening Methods” (SRU Biosystems, Inc., priority 2009, published 2012)
Blank lines part the entries; values can stand above or below the molecule they belong to.

How the values were obtained:
Format in all cases: cell-based
[1] = molecular target: T1, M4 muscarinic receptor expressing cells (M4R) (Homo sapiens, UniProt P08173); assay: Label-free endpoint response on BIND Reader, M4R cells; conditions: for Endpoint response of M4R cells to ligand: first addition, 10uM carbachol or 50 nM ET-1, M4R cells plated alone
T1 sequence (P08173 1-479): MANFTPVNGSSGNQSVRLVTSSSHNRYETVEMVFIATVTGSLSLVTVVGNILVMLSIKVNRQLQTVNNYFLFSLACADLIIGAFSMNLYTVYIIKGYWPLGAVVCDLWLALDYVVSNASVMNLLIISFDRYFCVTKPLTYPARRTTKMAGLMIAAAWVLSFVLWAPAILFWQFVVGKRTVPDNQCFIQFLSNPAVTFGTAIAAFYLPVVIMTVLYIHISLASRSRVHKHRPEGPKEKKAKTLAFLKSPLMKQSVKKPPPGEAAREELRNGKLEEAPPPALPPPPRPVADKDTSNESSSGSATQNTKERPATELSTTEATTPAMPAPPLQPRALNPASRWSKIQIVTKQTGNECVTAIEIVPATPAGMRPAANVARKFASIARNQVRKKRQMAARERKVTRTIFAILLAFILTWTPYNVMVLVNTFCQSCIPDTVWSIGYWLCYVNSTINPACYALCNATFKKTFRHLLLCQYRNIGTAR
Procedure: (§1) The response of the two or more cell types to the stimuli or test reagent can be also detected by a BIND® READER (colorimetric resonant reflectance biosensor system). For example, Endothelin receptor expressing cells (ETaR) and M4 muscarinic receptor expressing cells (M4R) were plated on CA2 cellular matrix-coated colorimetric resonant reflectance biosensor plates in starvation media. The cells were pre-treated with antagonists (either atropine to inhibit M4 or BMS to inhibit ETaR) for 30 min. […] Data are referenced to buffer controls.
(§2) The ETaR cells and M4R cells were then treated with a second ligand.

[2] = tested on: M5/RBL cells; assay: Label-free response of 1:1 mixed RBL and M5/RBL cells on BIND SCANNER; conditions: 1:1 mixed population of RBL+M5/RBL cells
Procedure: RBL and M5/RBL cells were mixed in a 1:1 ratio and were plated in colorimetric resonant reflectance biosensor wells. The cells were allowed to attach to the biosensor and the attachment reaction was detected on a BIND® SCANNER. Acetylcholine was added to the biosensor surface. […] Approximately 50% of a 1:1 mixed population of RBL+M5/RBL cells responded to acetylcholine. The responding cells can be gated and analyzed for quantitative responses (e.g., responses to additional test reagents or stimuli) independent of non-responding population. Therefore, the presence of different types of cells on a biosensor can be detected when their response to a ligand is known.

[3] = molecular target: T2, Endothelin receptor expressing cells (ETaR) (Homo sapiens, UniProt P25101); assay: Label-free endpoint response on BIND Reader, ETaR cells; conditions: first addition; 10uM carbachol or 50 nM ET-1; ETaR cells plated alone
T2 sequence (P25101 21-427): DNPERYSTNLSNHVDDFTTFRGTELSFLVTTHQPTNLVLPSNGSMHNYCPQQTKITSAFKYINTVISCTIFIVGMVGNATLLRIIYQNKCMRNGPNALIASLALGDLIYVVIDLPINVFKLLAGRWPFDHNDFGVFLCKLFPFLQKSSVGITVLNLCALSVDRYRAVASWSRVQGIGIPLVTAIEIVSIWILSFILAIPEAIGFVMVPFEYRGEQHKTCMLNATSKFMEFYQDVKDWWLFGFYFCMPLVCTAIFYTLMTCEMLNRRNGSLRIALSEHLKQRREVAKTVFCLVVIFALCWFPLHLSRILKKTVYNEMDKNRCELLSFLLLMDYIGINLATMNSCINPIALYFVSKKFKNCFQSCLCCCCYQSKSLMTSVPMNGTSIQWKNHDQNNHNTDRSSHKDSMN
Procedure: as §1, §2

[4] = molecular target: T3, CXCR4 (Homo sapiens, UniProt P61073); assay: Label-free response to SDF-1α on BIND READER; conditions: THP-1 cells, OEM cells, MSC cells; different concentrations
T3 construct: endogenous in cells; host or cells: THP-1 cells, 'OEM' cells, MSC cells
Text: SDF-1α binds to and activates CXCR4, a GPCR. Stem cells will move to tissues releasing gradients of SDF-1α. Damaged tissue releases elevated levels of SDF-1α resulting in increased migration of mesenchymal stem cells to sites of injury. Chemotactic factors induce significant changes in the actin cytoskeleton of cells upon receptor activation. These changes are manifested as directional movement when the chemokine is presented as a gradient. SDF-1α induces the migration of mesenchymal stem cells and osteoblast progenitor cells. Overexpression of CXCR4 results in improved MSC migration and homing to sites of vascular injury.

[5] = tested on: Rat MSC cells; assay: Rat MSC movement on fibronectin-coated biosensor; conditions: attachment signal zeroed out
Procedure: Rat MSC cells were added to a biosensor coated with fibronectin. Cell attachment was detected on a colorimetric resonant reflectance biosensor at 3 hours and 16 hours. The attachment signal was zeroed out and the cells were stimulated with SDF-1α or were not stimulated. Movement of the cells can be seen in the right panels of FIG. 12. The darker spots are where the cells were prior to detection and the lighter spots are where the cells are when the reaction was detected. […] An enhanced signal can be seen on the cell edges where movement and/or cell adhesion is occurring. The enhanced signal correlates with the leading edge of the cells as they move across the biosensor as evidenced by time lapse imaging. This is consistent with extracellular matrix-integrin engagement of the cells. […] An approximately 7 to 10 fold improvement in signal to noise is observed.

[6] = tested on: rat MSC cell; assay: Rat MSC attachment to ECM-coated biosensors; conditions: ovalbumin, fibronectin, laminin or collagen biosensors
Text: In certain cases cells, such as stem cell or primary cells, have varying reactions to ligands depending upon what extracellular matrix component is present on the surface of the biosensor. This preference can be determined for each type of cell. […] The mP-M5 and mP-M4 cells show the best reaction to the ligands when they are on biosensors comprising fibronectin or collagen. […] Cells can be tested to determine the best ligand/ECM coating for attachment to the biosensor.

[7] = molecular target: cells expressing α4/β1 integrin receptors (Homo sapiens, UniProt P05556+P13612); assay: Cell attachment PWV shift on ECM ligand coated wells; conditions: for PWV shift of attached cells: immobilized on biosensor surface
Text: For example, cells expressing α4/β1 integrin receptors, which are known to bind to fibronectin ligands, but not to collagen or laminin ligands, generate a PWV shift on fibronectin coated wells that is about 8 to 10 times greater than the PWV shift observed on collagen or laminin surfaces.

cells expressing α4/β1 integrin receptors, sequence (P13612 34-1032): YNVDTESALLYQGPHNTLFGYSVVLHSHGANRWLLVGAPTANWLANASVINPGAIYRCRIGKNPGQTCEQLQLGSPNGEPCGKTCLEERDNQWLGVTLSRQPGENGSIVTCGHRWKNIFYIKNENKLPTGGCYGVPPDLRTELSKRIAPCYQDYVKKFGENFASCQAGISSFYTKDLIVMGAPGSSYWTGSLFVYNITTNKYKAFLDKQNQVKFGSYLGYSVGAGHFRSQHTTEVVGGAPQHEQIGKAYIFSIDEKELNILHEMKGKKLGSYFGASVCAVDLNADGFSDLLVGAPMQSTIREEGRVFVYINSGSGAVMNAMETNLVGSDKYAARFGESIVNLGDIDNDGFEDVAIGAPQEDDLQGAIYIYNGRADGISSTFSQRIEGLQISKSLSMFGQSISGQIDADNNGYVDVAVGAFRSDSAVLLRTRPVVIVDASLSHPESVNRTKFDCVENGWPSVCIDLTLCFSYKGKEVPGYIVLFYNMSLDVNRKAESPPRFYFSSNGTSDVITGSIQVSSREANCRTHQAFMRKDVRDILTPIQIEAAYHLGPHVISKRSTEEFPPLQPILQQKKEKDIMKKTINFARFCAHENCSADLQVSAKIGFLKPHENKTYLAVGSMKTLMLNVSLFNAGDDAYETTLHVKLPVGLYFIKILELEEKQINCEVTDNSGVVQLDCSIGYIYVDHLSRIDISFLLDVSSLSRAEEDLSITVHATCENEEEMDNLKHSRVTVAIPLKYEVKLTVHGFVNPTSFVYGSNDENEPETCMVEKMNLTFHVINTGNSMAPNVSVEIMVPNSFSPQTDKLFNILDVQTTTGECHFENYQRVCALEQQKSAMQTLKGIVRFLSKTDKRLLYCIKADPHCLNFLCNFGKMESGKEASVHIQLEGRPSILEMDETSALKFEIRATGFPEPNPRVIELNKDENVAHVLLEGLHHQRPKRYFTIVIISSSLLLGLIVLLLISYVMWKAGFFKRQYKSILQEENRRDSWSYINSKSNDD
cells expressing α4/β1 integrin receptors, sequence (P05556 21-798): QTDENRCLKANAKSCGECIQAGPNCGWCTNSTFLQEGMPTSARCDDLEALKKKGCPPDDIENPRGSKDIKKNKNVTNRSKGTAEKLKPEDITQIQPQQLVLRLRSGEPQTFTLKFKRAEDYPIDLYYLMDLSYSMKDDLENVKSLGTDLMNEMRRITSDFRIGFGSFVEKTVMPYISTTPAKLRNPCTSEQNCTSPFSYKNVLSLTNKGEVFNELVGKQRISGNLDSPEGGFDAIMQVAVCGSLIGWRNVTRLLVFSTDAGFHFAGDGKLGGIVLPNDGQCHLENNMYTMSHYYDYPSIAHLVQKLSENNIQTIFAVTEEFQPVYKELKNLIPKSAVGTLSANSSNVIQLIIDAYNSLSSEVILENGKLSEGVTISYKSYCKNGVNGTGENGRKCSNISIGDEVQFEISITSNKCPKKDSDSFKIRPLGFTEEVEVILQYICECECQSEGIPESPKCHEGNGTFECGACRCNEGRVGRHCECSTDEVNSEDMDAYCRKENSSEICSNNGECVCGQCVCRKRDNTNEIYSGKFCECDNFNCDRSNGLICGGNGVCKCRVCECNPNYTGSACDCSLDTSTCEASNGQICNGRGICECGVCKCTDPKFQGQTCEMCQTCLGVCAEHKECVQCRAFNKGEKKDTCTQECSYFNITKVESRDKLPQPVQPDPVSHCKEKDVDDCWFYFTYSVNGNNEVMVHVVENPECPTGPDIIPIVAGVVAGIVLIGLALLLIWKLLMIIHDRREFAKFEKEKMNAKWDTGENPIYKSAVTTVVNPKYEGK
T3 sequence (P61073 whole entry, species assumed): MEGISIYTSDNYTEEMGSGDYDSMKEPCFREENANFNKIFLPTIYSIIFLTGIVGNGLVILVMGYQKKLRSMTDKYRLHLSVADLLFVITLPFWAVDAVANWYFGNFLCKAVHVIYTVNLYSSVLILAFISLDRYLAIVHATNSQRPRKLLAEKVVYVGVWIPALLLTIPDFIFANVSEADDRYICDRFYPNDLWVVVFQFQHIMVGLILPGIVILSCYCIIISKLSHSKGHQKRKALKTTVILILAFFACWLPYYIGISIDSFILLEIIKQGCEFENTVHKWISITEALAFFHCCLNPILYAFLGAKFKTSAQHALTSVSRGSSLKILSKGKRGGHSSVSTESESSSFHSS

Molecule: CN1[C@@H]2CC[C@H]1C[C@@H](OC(=O)C(CO)c1ccccc1)C2 (stereo partly drawn) [Atropine, atropine]
- Inhibition of carbachol response in M4R cells ([1]; antagonist pre-treatment 30 min, then 10uM carbachol): completely inhibited

Molecule: CC(=O)OCC[N+](C)(C)C [acetylcholine]
- Fraction of mixed cell population responding [2]: Approximately 50%

- Endpoint response of M4R cells to ligand [1]: respond to carbachol
- Endpoint response of ETaR cells to ligand [3]: not to carbachol
Molecule: C[N+](C)(C)CCOC(N)=O [carbachol]
- Response of M4R cells to second ligand ([1]; second addition, after ET-1 stimulation): respond to carbachol, even after ET-1 stimulation

Molecule: ET-1: ligand to which Endothelin receptor expressing cells (ETaR) respond
- Endpoint response of M4R cells to ligand [1]: not to ET-1

- Label-free cell response [4]: rapid and robust response
Molecule: SDF-1α
- Cell movement and morphology after stimulation [5]: movement of the cells is seen along with a spreading out of the cells

Molecule: collagen
- Cell attachment compared with other surfaces [6]: better than the other surfaces
- PWV shift of attached cells [7]: resembles background cell attachment signal

- PWV shift relative to collagen or laminin surfaces ([7]; coated wells): 8 to 10 times
Molecule: fibronectin

Molecule: laminin
- PWV shift of attached cells [7]: resembles background cell attachment signal
